# Assay results: publication PMC8966755, “In Silico and In Vitro Screening of Natural Compounds as Broad-Spectrum β-Lactamase Inhibitors against Acinetobacter baumannii New Delhi Metallo-β-lactamase-1 (NDM-1)” (BioMed Research International, 2022)
# Where two headings read alike, the source gives them in different places.
# What was measured:
# β-lactamase = assay: β-Lactamase enzyme inhibitory activity assay; type: biochemical; settings: β-lactamase inhibition assay
# Protocol: . The percent inhibitory curves for the candidate natural compounds with efficacy for NDM-1 and β-lactamase enzyme are given in Figures 5(a) and 5(b). The natural compounds were incubated with NDM-1 enzyme, and the substrate, nitrocefin, and hydrolysis of the substrate were monitored at 490 nm OD.
# The eight candidate natural compounds identified by in silico analysis against NDM-1 were also tested for β-lactamase inhibition assay. […]
# Recombinant NDM-1 enzyme = target: T1, Recombinant NDM-1 enzyme (Klebsiella pneumoniae, UniProt C7C422); assay: biochemical
# T1 construct: purchased RayBiotech Life 230-00554-500
# T1 sequence (C7C422 29-270 limits assumed): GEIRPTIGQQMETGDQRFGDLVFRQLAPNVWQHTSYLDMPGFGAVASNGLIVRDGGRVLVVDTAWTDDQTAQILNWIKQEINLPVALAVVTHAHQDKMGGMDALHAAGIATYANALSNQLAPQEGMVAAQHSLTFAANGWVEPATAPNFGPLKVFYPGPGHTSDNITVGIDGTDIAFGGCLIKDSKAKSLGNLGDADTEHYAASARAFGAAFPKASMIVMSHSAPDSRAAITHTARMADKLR
# Protocol: The NDM-1 enzyme inhibition assay was carried out spectrophotometrically using nitrocefin as a chromogenic substrate as described previously [27].
# The natural compounds were incubated with NDM-1 enzyme, and the substrate, nitrocefin, and hydrolysis of the substrate were monitored at 490 nm OD.
# [1] = system: PAN resistance A. baumannii clinical isolate (strain number: P-29); assay: Checkerboard synergy titration assay with imipenem (FIC); type: cell-based; settings: compound 128 mg/L with imipenem; carbapenem-resistant A. baumannii clinical strain
# Protocol: The combined effect of the natural compounds and imipenem (Zhejiang Hisun Pharmaceutical, China) was done using the checkerboard synergy titration assay in a 96-well microtitre plate. Imipenem was tested at concentrations of […] than their MIC and two dilutions higher than the MIC. MIC concentration of imipenem (4x) was added in all wells under column 1 of the 96-well checkerboard panel for each concentration of natural compounds (one each row). The compounds were serially diluted at different subinhibitory concentrations, and each concentration was added to the corresponding rows.
# A FIC = 0.5 for a compound was taken as synergistic, FIC > 0.5 − 4 was additive/indifferent, and FIC > 4 was taken as antagonistic.
# The checkerboard method was used to design the dilution panel, with twofold concentrations above the MIC of the antibiotics and MIC concentration and fivefold below the MIC.
# [2] = 1 nM NDM-1, 10 μM ZnSO4, nitrocefin 60 μM, 490 nm, 30°C, compounds 10-100 μM, read-out: IC50 NDM-1 enzyme activity
IC50 (Recombinant NDM-1 enzyme; [2]) [µM],Compound,IC50 (β-lactamase) [µM],IC50 (Recombinant NDM-1 enzyme) [µM],FIC index [1]
97.5 ± 5.59,COc1c(O)cc2oc3cc(O)c(CC=C(C)C)c(O)c3c(=O)c2c1CC=C(C)C [Mangostin],136 ± 37.1,,
,CC1=C(CO)C(=O)O[C@@H]([C@@H](C)[C@H]2CC[C@H]3[C@@H]4C[C@H]5O[C@]56[C@@H](O)C=CC(=O)[C@]6(C)[C@H]4CC[C@]23C)C1 [Withaferin A],32.8 ± 2.59,24 ± 2.92,0.3125
,O=c1c2cc(O)c(O)cc2oc2cc(O)c([C@@H]3O[C@H](CO)[C@@H](O)[C@H](O)[C@H]3O)c(O)c12 [Mangiferin],58 ± 2.08,30.6 ± 4.41,0.625
,"CC1(C)[C@H](C(=O)O)N2C(=O)C[C@H]2S1(=O)=O [sulbactam, reference compound]",7.24 ± 0.392,,
48.9 ± 3.74,C[C@@H]1O[C@@H](OC[C@H]2O[C@@H](Oc3c(-c4ccc(O)c(O)c4)oc4cc(O)cc(O)c4c3=O)[C@H](O)[C@@H](O)[C@@H]2O)[C@H](O)[C@H](O)[C@H]1O [Rutin],127 ± 15.9,,
